Measurements from ChEMBL document CHEMBL5154845, “Dual-acting antitumor agents targeting the A2A adenosine receptor and histone deacetylases: Design and synthesis of 4-(furan-2-yl)-1H-pyrazolo[3,4-d]pyrimidin-6-amine derivatives” (Eur J Med Chem, 2022).
Activity calls are given as the source filed them. The rule behind the calls is not given here.

Columns and labels:
[1] = molecular target: Histone deacetylase 1 (Homo sapiens, UniProt Q13547); test: Inhibition of HDAC1 (unknown origin) using trypsin and LGK(Ac)-AMC as substrates incubated for 1 hr and measured by fluorescence assay
[2] = system: MC38; test: Inhibition of HDAC in mouse MC38 cells assessed as increase in H4 acetylation at 0.1 to 5 uM measured by western blot analysis; assay type: cell-based; settings: dose 0.1-5 µM
[3] = Bioavailability in male ICR mouse at 20 mg/kg,ip measured up to 24 hrs by LC-MS/MS analysis; assay type: ADME, organism-based; settings: in vivo
[4] = Cmax in male ICR mouse at 20 mg/kg, ip measured up to 24 hrs by LC-MS/MS analysis; assay type: ADME, organism-based; parameters: time < 24 hrs, dose 20 mg/kg, route ip; settings: in vivo
[5] = AUC (0 to t) in male ICR mouse at 20 mg/kg, po measured up to 24 hrs by LC-MS/MS analysis; assay type: ADME, organism-based; parameters: time < 24 hrs, dose 20 mg/kg, route po; settings: in vivo
[6] = Half-life in male ICR mouse at 5 mg/kg, iv measured up to 24 hrs by LC-MS/MS analysis; assay type: ADME, organism-based; settings: in vivo
[7] = system: MC-38; test: Antitumor activity against mouse MC38 cells xenografted in C57 mouse assessed as tumor growth inhibition at 90 mg/kg, po administered twice a day; assay type: functional; settings: read-out: TGI
[8] = molecular target: T1, Histone deacetylase 8 (Homo sapiens, UniProt Q9BY41); test: Inhibition of HDAC8 (unknown origin) using trypsin and LGK(Ac)-AMC as substrates incubated for 1 hr and measured by fluorescence assay
T1 sequence (Q9BY41 whole entry): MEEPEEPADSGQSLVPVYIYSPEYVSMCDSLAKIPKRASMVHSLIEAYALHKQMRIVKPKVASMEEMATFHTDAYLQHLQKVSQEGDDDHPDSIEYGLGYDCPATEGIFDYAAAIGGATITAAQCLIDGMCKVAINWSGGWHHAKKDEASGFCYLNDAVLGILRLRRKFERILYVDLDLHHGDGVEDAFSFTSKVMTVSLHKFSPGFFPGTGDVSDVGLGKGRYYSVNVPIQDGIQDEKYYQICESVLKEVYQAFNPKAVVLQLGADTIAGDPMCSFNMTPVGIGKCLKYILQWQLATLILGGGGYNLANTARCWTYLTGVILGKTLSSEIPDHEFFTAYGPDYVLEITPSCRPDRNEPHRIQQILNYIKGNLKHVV

[9] = Volume of distribution at steady state in male ICR mouse at 5 mg/kg, iv measured up to 24 hrs by LC-MS/MS analysis; assay type: ADME, organism-based; settings: in vivo
[10] = system: CT26; test: Antiproliferative activity against mouse CT26 cells after 72 hrs by CCK-8 assay; assay type: functional
[11] = system: MC38; test: Inhibition of HDAC in mouse MC38 cells assessed as increase in H3 acetylation at 0.1 to 5 uM measured by western blot analysis; assay type: cell-based; settings: dose 0.1-5 µM
[12] = molecular target: T2, Adenosine receptor A3 (Homo sapiens, UniProt P0DMS8); test: Displacement of [3H]HEMADO from human A3AR incubated for 60 mins by scintillation counter analysis
T2 sequence (P0DMS8 whole entry): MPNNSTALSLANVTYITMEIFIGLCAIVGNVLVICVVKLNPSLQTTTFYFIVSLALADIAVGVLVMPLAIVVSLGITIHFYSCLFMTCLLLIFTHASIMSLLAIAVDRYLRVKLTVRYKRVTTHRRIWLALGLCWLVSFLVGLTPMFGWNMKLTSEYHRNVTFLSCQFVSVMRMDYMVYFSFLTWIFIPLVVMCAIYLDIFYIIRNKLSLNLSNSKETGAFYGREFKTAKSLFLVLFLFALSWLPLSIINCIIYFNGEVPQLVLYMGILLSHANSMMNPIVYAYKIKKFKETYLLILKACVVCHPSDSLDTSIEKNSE

[13] = Tmax in male ICR mouse at 20 mg/kg, ip measured up to 24 hrs by LC-MS/MS analysis; assay type: ADME, organism-based; settings: in vivo
[14] = Initial plasma concentration in male ICR mouse at 5 mg/kg, iv measured up to 24 hrs by LC-MS/MS analysis; assay type: ADME, organism-based
[15] = Half-life in male ICR mouse at 20 mg/kg, po measured up to 24 hrs by LC-MS/MS analysis; assay type: ADME, organism-based; settings: in vivo
[16] = Clearance in male ICR mouse at 20 mg/kg, ip measured up to 24 hrs by LC-MS/MS analysis; assay type: ADME, organism-based; settings: in vivo
[17] = AUC (0 to t) in male ICR mouse at 20 mg/kg, ip measured up to 24 hrs by LC-MS/MS analysis; assay type: ADME, organism-based; parameters: dose 20 mg/kg, time < 24 hrs, route ip; settings: in vivo
[18] = AUC (0 to t) in male ICR mouse at 5 mg/kg, iv measured up to 24 hrs by LC-MS/MS analysis; assay type: ADME, organism-based; parameters: time < 24 hrs, dose 5 mg/kg, route iv; settings: in vivo
[19] = Oral bioavailability in male ICR mouse at 20 mg/kg measured up to 24 hrs by LC-MS/MS analysis; assay type: ADME, organism-based; settings: in vivo
[20] = molecular target: Adenosine receptor A2a (Homo sapiens, UniProt P29274); test: Displacement of [3H][…] from human A2AAR incubated for 60 mins by scintillation counter analysis
[21] = Elimination rate constant in male ICR mouse at 20 mg/kg, ip measured up to 24 hrs by LC-MS/MS analysis; assay type: ADME, organism-based; settings: in vivo
[22] = Mean residence time in male ICR mouse at 20 mg/kg, ip measured up to 24 hrs by LC-MS/MS analysis; assay type: ADME, organism-based; settings: in vivo
[23] = Mean residence time in male ICR mouse at 20 mg/kg, po measured up to 24 hrs by LC-MS/MS analysis; assay type: ADME, organism-based; settings: in vivo
[24] = Tmax in male ICR mouse at 20 mg/kg, po measured up to 24 hrs by LC-MS/MS analysis; assay type: ADME, organism-based; settings: in vivo
[25] = Cmax in male ICR mouse at 20 mg/kg, po measured up to 24 hrs by LC-MS/MS analysis; assay type: ADME, organism-based; parameters: time < 24 hrs, dose 20 mg/kg, route po; settings: in vivo
[26] = system: MC-38; test: Antitumor activity against mouse MC38 cells xenografted in C57 mouse assessed as tumor growth inhibition at 150 mg/kg, po administered once a day; assay type: functional; settings: read-out: TGI
[27] = molecular target: T3, Adenosine receptor A1 (Homo sapiens, UniProt P30542); test: Displacement of [3H]DPCPX from human A1AR incubated for 60 mins by scintillation counter analysis
T3 sequence (P30542 whole entry): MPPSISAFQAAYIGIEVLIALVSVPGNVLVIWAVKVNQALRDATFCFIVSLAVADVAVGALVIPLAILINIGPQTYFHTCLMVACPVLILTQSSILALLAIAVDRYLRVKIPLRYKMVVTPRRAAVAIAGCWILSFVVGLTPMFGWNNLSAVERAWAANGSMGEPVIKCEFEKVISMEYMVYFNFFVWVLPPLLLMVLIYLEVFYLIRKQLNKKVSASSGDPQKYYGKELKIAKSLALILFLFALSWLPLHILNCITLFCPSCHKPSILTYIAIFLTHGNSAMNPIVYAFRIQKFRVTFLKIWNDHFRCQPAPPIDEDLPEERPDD

[28] = molecular target: Histone deacetylase 2 (Homo sapiens, UniProt Q92769); test: Inhibition of HDAC2 (unknown origin) using trypsin and LGK(Ac)-AMC as substrates incubated for 1 hr and measured by fluorescence assay
[29] = system: MC-38; test: Antitumor activity against mouse MC38 cells xenografted in C57 mouse assessed as tumor growth inhibition at 60 mg/kg, ip administered twice a day; assay type: functional; settings: read-out: TGI

Adenosine receptor A2a, sequence (P29274 whole entry): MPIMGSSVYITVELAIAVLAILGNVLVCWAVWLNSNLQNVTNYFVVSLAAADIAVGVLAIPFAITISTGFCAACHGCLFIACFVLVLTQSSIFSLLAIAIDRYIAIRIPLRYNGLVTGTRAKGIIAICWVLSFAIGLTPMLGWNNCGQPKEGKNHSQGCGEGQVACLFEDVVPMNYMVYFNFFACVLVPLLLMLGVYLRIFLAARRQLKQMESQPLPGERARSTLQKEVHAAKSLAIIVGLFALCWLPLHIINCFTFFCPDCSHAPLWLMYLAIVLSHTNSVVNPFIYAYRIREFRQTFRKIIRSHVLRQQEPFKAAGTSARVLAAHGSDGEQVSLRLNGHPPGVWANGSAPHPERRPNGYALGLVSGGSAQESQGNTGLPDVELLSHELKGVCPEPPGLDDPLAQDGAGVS
Histone deacetylase 1, sequence (Q13547 whole entry): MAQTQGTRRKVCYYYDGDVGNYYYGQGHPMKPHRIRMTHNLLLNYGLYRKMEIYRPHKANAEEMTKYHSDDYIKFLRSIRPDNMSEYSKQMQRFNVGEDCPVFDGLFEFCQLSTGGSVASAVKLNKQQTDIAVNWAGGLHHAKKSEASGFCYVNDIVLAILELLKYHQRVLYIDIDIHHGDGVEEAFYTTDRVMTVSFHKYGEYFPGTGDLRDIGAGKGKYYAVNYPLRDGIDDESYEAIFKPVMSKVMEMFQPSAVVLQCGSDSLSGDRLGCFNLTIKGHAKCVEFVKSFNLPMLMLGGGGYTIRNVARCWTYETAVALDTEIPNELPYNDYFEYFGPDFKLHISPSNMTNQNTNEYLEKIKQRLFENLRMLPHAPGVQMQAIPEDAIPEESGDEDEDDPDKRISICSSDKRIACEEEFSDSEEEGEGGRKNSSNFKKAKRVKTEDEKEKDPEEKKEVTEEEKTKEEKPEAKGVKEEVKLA
Histone deacetylase 2, sequence (Q92769 whole entry): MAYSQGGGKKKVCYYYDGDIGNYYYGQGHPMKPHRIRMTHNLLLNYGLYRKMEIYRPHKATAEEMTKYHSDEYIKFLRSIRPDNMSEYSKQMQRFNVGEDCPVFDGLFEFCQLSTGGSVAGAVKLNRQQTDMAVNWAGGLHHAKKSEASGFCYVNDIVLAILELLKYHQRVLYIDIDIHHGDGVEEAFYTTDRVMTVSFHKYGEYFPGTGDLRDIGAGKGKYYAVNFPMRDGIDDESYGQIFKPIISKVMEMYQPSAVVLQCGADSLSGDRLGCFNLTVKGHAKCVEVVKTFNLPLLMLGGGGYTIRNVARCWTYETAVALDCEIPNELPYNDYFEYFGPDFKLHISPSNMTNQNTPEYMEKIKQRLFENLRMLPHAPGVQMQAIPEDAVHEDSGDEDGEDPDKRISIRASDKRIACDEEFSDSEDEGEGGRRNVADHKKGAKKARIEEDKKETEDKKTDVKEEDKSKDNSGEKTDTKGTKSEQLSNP

IC50 [1]: 145 nM
bioavailability [3]: 119%
Cmax [4]: 8410 ng/mL
AUC(0-t) at 24 h [5]: 3600 ng·h/mL
half-life [6]: 23.3 min
IC50 [8]: > 10000 nM
Vdss [9]: 0.92 L/kg
GI50 [10]: 380 nM
Ki [12]: > 10000 nM
Tmax [13]: 15 min
C0 at 24 h [14]: 6500 ng/mL
half-life [15]: 134 min
CL/F [16]: 33.5 mL/min/kg
AUC(0-t) at 24 h [17]: 10000 ng·h/mL
AUCt [18]: 2098 ng·h/mL
bioavailability [19]: 43%
Ki [20]: 163 nM
k el at 24 h [21]: 0.000234 s⁻¹
MRT [22]: 57 min
MRT [23]: 77.4 min
Tmax [24]: 20 min
Cmax [25]: 3420 ng/mL
Ki [27]: 503 nM
IC50 [28]: 240 nM
SMILES: Nc1nc(-c2ccco2)c2cnn(CCc3ccc(C(=O)Nc4ccccc4N)cc3)c2n1
inhibition [2]: Active
inhibition in vivo at 90 mg/kg [7]: 44%
inhibition [11]: Active
inhibition in vivo at 150 mg/kg [26]: 26%
inhibition in vivo at 60 mg/kg [29]: 85%
